Laboratory results published in ChEMBL document CHEMBL4011609, “Discovery of novel BRD4 inhibitors by high-throughput screening, crystallography, and cell-based assays” (Bioorg Med Chem Lett, 2017).
Activity calls are given as the source filed them. No cut-off for these calls is given here.

Columns and labels:
[1] = system: MV4-11; assay: Induction of apoptosis in human MV4-11 cells assessed as live cells at 27 uM after 72 hrs by Annexin V-FITC/propidium iodide staining based flow cytometry (reference value: 92 %); format: functional
[2] = target: T1, Bromodomain-containing protein 4 (Homo sapiens, UniProt O60885); assay: Inhibition of human BRD4-BD1 (49 to 170 residues) expressed in Escherichia coli BL21(DE3) using N-C:SGRG-K(Ac)-GG-K(Ac)-GLG-K(Ac)-GGA-K(Ac)-RHRKVGG-K(biotin) as substrate preincubated for 15 mins followed by substrate addition measured after 5 mins by AlphaScreen assay
[3] = target: T1, Bromodomain-containing protein 4; assay: Binding affinity to human BRD4 BD1 (49 to 170 residues) expressed in Escherichia coli BL21(DE3) assessed as change in melting temperature at 50 uM by SYPRO Orange probe-based Real-Time PCR method
[4] = target: Nucleosome-remodeling factor subunit BPTF (Homo sapiens) (UniProt Q12830); assay: Inhibition of FALZ (unknown origin) at 100 uM using acetylated lysine as substrate relative to control
[5] = target: SWI/SNF-related matrix-associated actin-dependent regulator of chromatin subfamily A member 2 (Homo sapiens) (UniProt P51531); assay: Inhibition of SMARCA2 (unknown origin) at 100 uM using acetylated lysine as substrate relative to control
[6] = target: T2, Bromodomain-containing protein 7 (Homo sapiens) (UniProt Q9NPI1); assay: Inhibition of BRD7 (unknown origin) at 100 uM using acetylated lysine as substrate relative to control
T2 sequence (whole entry): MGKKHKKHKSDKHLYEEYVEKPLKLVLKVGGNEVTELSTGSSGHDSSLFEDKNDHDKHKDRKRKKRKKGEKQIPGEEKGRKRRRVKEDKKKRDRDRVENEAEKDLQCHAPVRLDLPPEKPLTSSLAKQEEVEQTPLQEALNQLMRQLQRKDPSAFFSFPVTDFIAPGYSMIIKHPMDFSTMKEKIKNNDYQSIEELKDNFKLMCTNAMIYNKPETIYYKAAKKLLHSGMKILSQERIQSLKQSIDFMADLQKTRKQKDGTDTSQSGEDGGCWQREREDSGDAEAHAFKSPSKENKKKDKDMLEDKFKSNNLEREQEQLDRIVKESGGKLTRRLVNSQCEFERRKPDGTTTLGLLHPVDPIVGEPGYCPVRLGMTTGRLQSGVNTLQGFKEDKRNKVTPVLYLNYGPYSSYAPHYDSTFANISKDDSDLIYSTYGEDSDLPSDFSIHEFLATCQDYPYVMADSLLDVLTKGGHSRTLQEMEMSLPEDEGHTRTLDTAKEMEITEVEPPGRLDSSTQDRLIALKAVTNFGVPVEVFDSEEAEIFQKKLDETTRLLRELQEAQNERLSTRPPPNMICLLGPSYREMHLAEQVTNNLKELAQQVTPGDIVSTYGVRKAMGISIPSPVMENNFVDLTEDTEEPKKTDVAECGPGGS

[7] = target: T3, Bromodomain-containing protein 9 (Homo sapiens) (UniProt Q9H8M2); assay: Inhibition of BRD9 (unknown origin) at 100 uM using acetylated lysine as substrate relative to control
T3 sequence (whole entry): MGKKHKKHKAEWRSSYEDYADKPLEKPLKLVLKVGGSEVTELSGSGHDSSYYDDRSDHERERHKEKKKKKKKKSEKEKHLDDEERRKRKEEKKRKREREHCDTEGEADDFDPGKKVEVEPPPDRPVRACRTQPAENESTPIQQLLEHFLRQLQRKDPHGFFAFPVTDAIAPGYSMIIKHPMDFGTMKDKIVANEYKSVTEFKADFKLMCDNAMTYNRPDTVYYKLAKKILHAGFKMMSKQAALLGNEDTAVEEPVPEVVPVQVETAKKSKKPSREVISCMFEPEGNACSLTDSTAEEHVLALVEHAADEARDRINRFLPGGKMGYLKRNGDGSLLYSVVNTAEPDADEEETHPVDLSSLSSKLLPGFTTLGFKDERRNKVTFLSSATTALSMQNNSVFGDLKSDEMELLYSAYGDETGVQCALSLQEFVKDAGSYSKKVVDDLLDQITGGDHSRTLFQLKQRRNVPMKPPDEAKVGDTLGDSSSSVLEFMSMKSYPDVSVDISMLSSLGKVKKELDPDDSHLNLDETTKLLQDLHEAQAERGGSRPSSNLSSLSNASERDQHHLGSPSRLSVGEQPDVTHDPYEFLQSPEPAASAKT

[8] = target: Nucleosome-remodeling factor subunit BPTF (Homo sapiens) (UniProt Q12830); assay: Inhibition of FALZ (unknown origin) at 50 uM using acetylated lysine as substrate relative to control
[9] = target: SWI/SNF-related matrix-associated actin-dependent regulator of chromatin subfamily A member 2 (Homo sapiens) (UniProt P51531); assay: Inhibition of SMARCA2 (unknown origin) at 50 uM using acetylated lysine as substrate relative to control
[10] = target: T2, Bromodomain-containing protein 7 (Homo sapiens); assay: Inhibition of BRD7 (unknown origin) at 50 uM using acetylated lysine as substrate relative to control
[11] = target: T3, Bromodomain-containing protein 9 (Homo sapiens); assay: Inhibition of BRD9 (unknown origin) at 50 uM using acetylated lysine as substrate relative to control
[12] = target: T1, Bromodomain-containing protein 4; assay: Inhibition of BRD4 BD1 in human MV4-11 cells assessed as reduction in Bcl-2 mRNA level at 10 to 30 uM after 6 hrs by Sybr green dye based qRT-PCR analysis; format: cell-based
[13] = target: T1, Bromodomain-containing protein 4; assay: Inhibition of BRD4 BD1 in human MV4-11 cells assessed as reduction in c-Myc expression after 6 hrs by Western blot method; format: cell-based
[14] = target: T1, Bromodomain-containing protein 4; assay: Inhibition of BRD4 BD1 in human MV4-11 cells assessed as reduction in CDK6 mRNA level at 10 to 30 uM after 6 hrs by Sybr green dye based qRT-PCR analysis; format: cell-based
[15] = target: T1, Bromodomain-containing protein 4; assay: Inhibition of BRD4 BD1 in human MV4-11 cells assessed as reduction in c-Myc mRNA level at 10 to 30 uM after 6 hrs by Sybr green dye based qRT-PCR analysis; format: cell-based
[16] = system: MV4-11; assay: Antiproliferative activity against human MV4-11 cells after 3 days by Alamar blue assay; conditions: MV4-11, 72 h
[17] = system: MV4-11; assay: Antiproliferative activity against human MV4-11 cells after 7 days by Alamar blue assay; conditions: MV4-11, 168 h
[18] = system: MV4-11; assay: Cell cycle arrest in human MV4-11 cells assessed as accumulation at G0/G1 phase at 27 uM after 24 hrs by propidium iodide/RNase staining based flow cytometry (reference value: 57.54%); format: functional
[19] = system: MV4-11; assay: Cell cycle arrest in human MV4-11 cells assessed as accumulation at S phase at 27 uM after 24 hrs by propidium iodide/RNase staining based flow cytometry (reference value: 31.98 %); format: functional
[20] = system: MV4-11; assay: Cell cycle arrest in human MV4-11 cells assessed as accumulation at G2 phase at 27 uM after 24 hrs by propidium iodide/RNase staining based flow cytometry (reference value: 10.48 %); format: functional
[21] = system: MV4-11; assay: Induction of apoptosis in human MV4-11 cells assessed as apoptotic cells at 27 uM after 72 hrs by Annexin V-FITC/propidium iodide staining based flow cytometry (reference value: 3.62 %); format: functional
[22] = system: MV4-11; assay: Induction of apoptosis in human MV4-11 cells assessed as necrotic cells at 27 uM after 72 hrs by Annexin V-FITC/propidium iodide staining based flow cytometry (reference value: 1.68 %); format: functional
[23] = target: T1, Bromodomain-containing protein 4; assay: Binding affinity to human BRD4 BD1 (49 to 170 residues) expressed in Escherichia coli BL21(DE3) assessed as change in melting temperature at 100 uM by SYPRO Orange probe-based Real-Time PCR method
[24] = target: T1, Bromodomain-containing protein 4; assay: Binding affinity to human BRD4 BD1 (49 to 170 residues) expressed in Escherichia coli BL21(DE3) assessed as change in melting temperature at 200 uM by SYPRO Orange probe-based Real-Time PCR method
[25] = target: T1, Bromodomain-containing protein 4; assay: Binding affinity to human BRD4 BD1 (49 to 170 residues) expressed in Escherichia coli BL21(DE3) assessed as change in melting temperature by SYPRO Orange probe-based Real-Time PCR method

Chain of SWI/SNF-related matrix-associated actin-dependent regulator of chromatin subfamily A member 2 (Homo sapiens) (P51531 whole entry): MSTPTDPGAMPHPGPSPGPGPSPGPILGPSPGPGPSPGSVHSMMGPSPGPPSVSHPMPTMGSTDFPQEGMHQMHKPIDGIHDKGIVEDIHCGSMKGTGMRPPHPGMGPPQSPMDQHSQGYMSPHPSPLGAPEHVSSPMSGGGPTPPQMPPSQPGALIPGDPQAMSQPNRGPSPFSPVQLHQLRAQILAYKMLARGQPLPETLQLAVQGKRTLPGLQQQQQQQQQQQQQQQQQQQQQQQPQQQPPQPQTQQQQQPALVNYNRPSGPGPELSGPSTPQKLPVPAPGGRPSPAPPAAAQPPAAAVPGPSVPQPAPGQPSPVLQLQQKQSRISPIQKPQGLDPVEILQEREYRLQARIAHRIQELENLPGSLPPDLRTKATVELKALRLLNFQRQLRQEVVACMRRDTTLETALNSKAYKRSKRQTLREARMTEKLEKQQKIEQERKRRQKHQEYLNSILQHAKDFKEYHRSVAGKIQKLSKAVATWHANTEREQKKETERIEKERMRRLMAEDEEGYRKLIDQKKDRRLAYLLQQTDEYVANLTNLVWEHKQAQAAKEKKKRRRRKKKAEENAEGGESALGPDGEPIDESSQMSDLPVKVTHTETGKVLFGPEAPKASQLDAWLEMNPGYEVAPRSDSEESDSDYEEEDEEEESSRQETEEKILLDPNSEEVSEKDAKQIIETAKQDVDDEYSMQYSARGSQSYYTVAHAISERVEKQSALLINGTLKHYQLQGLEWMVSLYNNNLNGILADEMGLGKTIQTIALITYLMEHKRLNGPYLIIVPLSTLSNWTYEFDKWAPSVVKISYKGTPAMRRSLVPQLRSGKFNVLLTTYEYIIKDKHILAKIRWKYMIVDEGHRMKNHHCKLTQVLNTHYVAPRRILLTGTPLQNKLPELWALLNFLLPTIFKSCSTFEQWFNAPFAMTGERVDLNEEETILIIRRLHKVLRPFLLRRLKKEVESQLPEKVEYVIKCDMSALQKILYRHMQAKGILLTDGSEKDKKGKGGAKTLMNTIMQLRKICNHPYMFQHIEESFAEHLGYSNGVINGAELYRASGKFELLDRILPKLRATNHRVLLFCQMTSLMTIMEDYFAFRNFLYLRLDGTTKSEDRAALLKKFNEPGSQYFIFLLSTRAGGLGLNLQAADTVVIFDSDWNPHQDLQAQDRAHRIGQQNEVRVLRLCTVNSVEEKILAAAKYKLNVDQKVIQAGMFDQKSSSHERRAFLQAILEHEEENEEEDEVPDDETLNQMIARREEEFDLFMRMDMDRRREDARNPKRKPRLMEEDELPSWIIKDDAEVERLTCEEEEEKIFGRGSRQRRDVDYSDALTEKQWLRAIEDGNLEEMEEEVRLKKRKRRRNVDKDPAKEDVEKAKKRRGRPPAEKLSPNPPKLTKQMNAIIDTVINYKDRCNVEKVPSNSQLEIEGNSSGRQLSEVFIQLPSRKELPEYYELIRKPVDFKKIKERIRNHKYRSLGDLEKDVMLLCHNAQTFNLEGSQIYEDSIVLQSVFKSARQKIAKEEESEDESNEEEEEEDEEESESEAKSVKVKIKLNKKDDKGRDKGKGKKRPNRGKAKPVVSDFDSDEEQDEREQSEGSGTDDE

## CN(CCCNc1cc(=O)oc2ccccc12)C(=O)c1cccs1
[1]
  Activity: 76.2%
[2]
  IC50: 0.81 µM
[3]
  ΔTm: 0.85 °C
[4]
  inhibition: inactive
[5]
  inhibition: inactive
[6]
  inhibition: 16%
[7]
  inhibition: 12%
[8]
  inhibition: inactive
[9]
  inhibition: inactive
[10]
  inhibition: 9%
[11]
  inhibition: inactive
[12]
  inhibition: Active
[13]
  inhibition: Dose-dependent effect
[14]
  inhibition: Active
[15]
  inhibition: Active
[16]
  IC50: 18.8 µM
[17]
  IC50: 10 µM
[18]
  Activity: 75.23%
[19]
  Activity: 18.93%
[20]
  Activity: 5.84%
[21]
  Activity: 10.7%
[22]
  Activity: 6.9%
[23]
  ΔTm: 3.06 °C
[24]
  ΔTm: 7.07 °C
[25]
  deltaTm: Dose-dependent effect
